Data from patent US20240294478A1, “ANTI-CANCER COMPOUNDS AND METHODS OF USE” (YALE UNIVERSITY, priority 2021, published 2024).

Experiments:
[1] = test system: ATR-CHK1 and ATM-CHK2 signaling axes in LN229 MGMT+/−, MMR+/− cells; assay: Western blotting of CHK1 and CHK2 phosphorylation; assay type: cell-based, human; settings: 20 μM, 24 or 48 h
Description: FIGS. 5A-5K: KL-50 activates DNA damage response pathways and cycle arrest in MGMT-cells, independent of MMR, and induces sensitivity in cells deficient in ICL or HR repair. […] Columns, mean; error bars, SD; n 5 technical replicates. FIGS. 5D-5K: KL-50 induces activation of the ATR-CHK1 and ATM-CHK2 signaling axes and delayed DNA repair foci formation in MGMT-deficient cells, independent of MMR status. […] Treatment with 1 μM doxorubicin for 24 h (Doxo) served as a positive control for p-CHK1 activation. […] Points, mean % cells with >10 foci; error bars, SD; n >5 technical replicates. […] Points, % cells with 10 foci, n>250 cells per condition.
A prior finding that the ATR-CHK1 signaling axis is activated in response to TMZ-induced replication stress in MGMT-deficient cells prompted analysis of the phosphorylation status of CHK1 and CHK2 in LN229 MGMT+/− and MMR+/−cells. […] Analysis of foci formation of the DDR factors phospho-SER139-H2AX (yH2AX), p53 binding protein 1 (53BP1), and phospho-SER33-RPA2 (pRPA) over the period of 2 to 48 h (FIGS. 5A-5C and FIGS. 5D-5I). […] However, these foci dissipate at later timepoints (72-96 h; FIGS. 5J-5K), and they are not associated with appreciable cellular toxicity (as shown earlier in FIGS. 2A and 2B).

[2] = test system: DLD1 colorectal adenocarcinoma cells (MSH6−); assay: Short-term viability assay, DLD1 MSH6-deficient cells +/- O6BG; assay type: cell-based, human; settings: with or without 10 μM O6BG pre-treatment (MGMT depletion)
Description: FIG. 1B: Short-term viability assay curves for KL-50 in DLD1 MSH6-deficient cells pre-treated with 0.01% DMSO control (CTR) or 10 μM O^6BG (+O^6BG) for 1 h prior to KL-50 addition. […] Short-term viability assay curves for (FIG. 1E) KL-50 in HCT116 MLH1−/−cells or (FIG. 1F) HCT116 cells complemented with chromosome 3 carrying wildtype MLH1 (+Chr3) pre-treated with 0.01% DMSO control or 10 μM O^6BG (+O^6BG) for 1 h prior to KL-50 addition. […] For these figures, points, mean; error bars, SD; n>3 technical replicates.
(§1) Short-term Cell Viability Assay. Cells were seeded in 96-well plates at 1000 or 2000 cells/well and allowed to adhere at 23° C. for 60 min and then incubated overnight at 37° C. Cells were treated with indicated concentrations of compounds in triplicate for 4-6 days prior to fixation with 3.7% paraformaldehyde and nuclear staining with 1 μg/mL Hoechst 33342 dye. Cells were imaged on a Cytation 3 imaging reader (BioTek) and quantified using CellProfiler software. For in vitro short-term growth delay experiments, IC50 values were determined from the nonlinear regression equation, [inhibitor] vs normalized response with variable slope.

[3] = test system: genomic DNA isolated from LN229 MGMT−/MMR+ cells; assay: Genomic DNA denaturing gel electrophoresis; assay type: cell-based, human; settings: KL-50 200 μM
Description: Genomic DNA Denaturing Gel Electrophoresis. Cells were trypsinized, washed with 1×PBS, and stored at −80° C. prior to processing. Genomic DNA was extracted with the DNeasy Blood & Tissue Kit (Qiagen) per kit protocol. A 0.7% agarose gel was prepared in 100 mM NaCl-2 mM EDTA (pH 8) and soaked in 40 mM NaOH-1 mM EDTA running buffer for 2 h. Genomic DNA (400 ng/well) was then loaded in 1×BlueJuice loading buffer (Invitrogen) and subjected to electrophoresis at 2 V/cm for 30 min, followed by 3 V/cm for 2 h. The gel was neutralized in 150 mM NaCl-100 mM Tris (pH 7.4) for 30 min, twice, and then stained with 1×SYBR Gold in 150 mM NaCl-100 mM Tris (pH 7.4) for 90 min. Imaging was performed on a ChemiDoc XRS+ Molecular Imager (Bio-Rad).

LN229 MGMT+ shPMS2 cells = assay: Short-term viability assay, LN229 MGMT+ shPMS2; assay type: cell-based; settings: Homo sapiens, LN-229, Table III, read-out: IC50 against LN229 cell lines, MGMT MMR−
Description: (§2) The activity of KL-50 in MGMT-LN229 cells engineered to lack expression of other key MMR proteins including MSH6, MLH1, PMS2, and MSH3 was also confirmed. Western blotting was performed in LN229 MGMT+/−cells with stable expression of shRNA targeting MSH6, MLH1, PMS2, or MSH3 to confirm depletion of the shRNA targets. In shMSH6 cells, there was reduced expression of MSH2, and in shMLH1 cells, there was loss of PMS2, due to destabilization in the setting of loss of their heterodimeric partners. GAPDH serves as loading control. […] Short-term viability assay curves for KL-50 in LN229 MGMT+/−, MMR+/shMSH6 cells. […] Short-term viability assay curves for KL-50 in LN229 MGMT+/−, MMR+/shMLH1 cells. […] Short-term viability assay curves for KL-50 in LN229 MGMT+/−, MMR+/shPMS2 cells. […] Short-term viability assay curves for KL-50 in LN229 MGMT+/−, MMR+/shMSH3 cells.
MMR Protein shRNA Knockdown. pGIPZ lentiviral shRNA vectors targeting MSH2, MSH6, MLH1, PMS2, and MSH3 were purchased from Horizon Discovery (Table IV). […]
Short-term Cell Viability Assay. […] Cells were imaged on a Cytation 3 imaging reader (BioTek) and quantified using CellProfiler software. For in vitro short-term growth delay experiments, IC50 values were determined from the nonlinear regression equation, [inhibitor] vs normalized response with variable slope.

LN229 MGMT− shMLH1 cells = assay: Short-term viability assay, LN229 MGMT- shMLH1; assay type: cell-based, human; settings: for IC50: Homo sapiens, LN-229, Table III, read-out: IC50 against LN229 cell lines, MGMT− MMR−; for MGMT− RI: Table III
Description: as §2
(§3) MMR Protein shRNA Knockdown. pGIPZ lentiviral shRNA vectors targeting MSH2, MSH6, MLH1, PMS2, and MSH3 were purchased from Horizon Discovery (Table IV). Lentiviral particles were produced in HEK293T cells via co-transfection with lentiviral shRNA plasmid, pCMV-VSV-G envelope plasmid (Addgene, #8454) and psPAX2 packaging plasmid (Addgene, #12260), using Lipofectamine 3000 Reagent (Invitrogen, L3000001) per manufacturer's protocol. Viral particles were harvested 48 h post-transfection and used to transduce LN229 MGMT+/−cells in the presence of 8 μg/mL polybrene. Selection of pooled cells with lentiviral expression was established with 1 μg/mL puromycin 48 h post-transduction for 3 to 4 days. Single cell cloning was performed by limiting dilution and protein knockdown was confirmed by western blotting.
as §1

LN229 MGMT− shMSH6 cells = assay: Short-term viability assay, LN229 MGMT- shMSH6; assay type: cell-based, human; settings: for IC50: Homo sapiens, LN-229, Table III, read-out: IC50 against LN229 cell lines, MGMT− MMR−; for MGMT− RI: Table III
Description: as §2, §3, §1

NC(=O)c1ncn2c(=O)n(CCF)nnc12 [KL-50]
CHK1 and CHK2 phosphorylation [1]: induced CHK1 and CHK2 phosphorylation in MGMT-cells regardless of MMR status | cytotoxicity in DLD1 cells [2]: toxic to these cells, but only after O^6BG-induced MGMT depletion | crosslinked genomic DNA (ICL induction) [3]: presence of crosslinked DNA | IC50 (LN229 MGMT+ shPMS2 cells): 215 ± 16 µM | IC50 (LN229 MGMT− shMLH1 cells): 7.8 ± 0.3 µM | MGMT− RI (LN229 MGMT− shMLH1 cells): 0.6 | IC50 (LN229 MGMT− shMSH6 cells): 6.6 ± 0.4 µM | MGMT− RI (LN229 MGMT− shMSH6 cells): 0.5

Cn1nnc2c(C(N)=O)ncn2c1=O [TMZ, 4-methyl-5-oxo-2,3,4,6,8-pentazabicyclo[4.3.0]nona-2,7,9-triene-9-carboxamide, reference compound]
CHK1 and CHK2 phosphorylation [1]: only induced phospho-CHK1 and —CHK2 in MGMT−/MMR+cells | cytotoxicity in DLD1 cells [2]: inactive | crosslinked genomic DNA (ICL induction) [3]: no evidence of ICL induction | IC50 (LN229 MGMT+ shPMS2 cells): 700 ± 58 µM | IC50 (LN229 MGMT− shMLH1 cells): 917 ± 85 µM | MGMT− RI (LN229 MGMT− shMLH1 cells): 180 | IC50 (LN229 MGMT− shMSH6 cells): 950 ± 68 µM | MGMT− RI (LN229 MGMT− shMSH6 cells): 186
